Measured values: US20100160228A1, “METHOD FOR INHIBITING OR STIMULATING ANGIOGENESIS IN AN INDIVIDUAL” (VALTION TEKNILLINEN TUTKIMUSKESKUS, priority 2007, published 2010)

Tested on: HUVEC
Experiment: Fibrin-gel in vitro angiogenesis (capillary tube formation) assay
Type: cell-based, human
Settings: VEGF, 24 h, FIG. 5A
Method: FIG. 5. Controlled TCPTP activation inhibits VEGF-driven capillary formation, chemokinesis and chemotaxis. (A) HUVEC were cultured in fibrin gels and treated with or without VEGF and TAT peptides (200 nM). After 24 h the formation of capillary tubes was semiquantitatively scored. (B) HUVEC were plated on gelatin in the presence of the peptides (200 nM) or left untreated for 1 h. The cells were stimulated as indicated and migration of individual cells was tracked using time-lapse microscopy. Cumulative migration distance was plotted for randomly picked individual cells. (C) HUVEC were treated with 200 nM peptides and the transmigration assay was performed as in FIG. 3D. (D) HUVEC were transfected with siRNA against TCPTP or a control siRNA, and TCPTP expression was analysed with immunofluorescence. Equal exposures of TCPTP (green) and DAPI (blue) stainings are shown. 48 h post-transfection cells were subjected to transmigration assay as in […].
Tube formation assays. In the fibrin-gel in vitro angiogenesis assay (Chemicon) HUVEC were plated onto a fibrin-gel, and overlaid with a second fibrin-gel after an overnight culture. […] At the 24 h end-point the formation of cellular networks was quantified from three randomly-selected fields from each well. […] In the collagen overlay assay the number of closed polygons formed by capillary tubes was quantified.

YGRKKRRQRRRWKLGFFKRPLKKKMEK (SEQ ID NO 3) [α1TAT]
inhibition of capillary tube formation compared to control peptide treated cells: 40% | inhibition of capillary tube formation compared to non-treated cells: 60%
